Read-outs that look alike come from different tables or passages of the source.
Tests used:
humans = conditions: for Maximal Tolerated Dose (MTD): oral pramipexole escalation to max 6 mg, ondansetron 8 mg or aprepitant 80 mg where combined
Method: The ability of a 5HT3-antagonist and of a NK1-antagonist for preventing the adverse effects of a DA-agonist in humans was tested.
To be enrolled in the study, participants the following inclusion/exclusion key criteria:
• 1. Male and female subjects aged 20-45 years old both ages included. • 2. Females of childbearing potential must agree to be abstinent or else use any two of the following medically acceptable forms of contraception from the Screening Period through 14 days after the study Exit Visit: condom with spermicidal jelly, diaphragm or cervical cap with spermicidal jelly, or intrauterine device (IUD). […] Subjects must agree to practice the above birth control methods for 14 days after the final visit as a safety precaution. • 3. […] The reason must be documented in the source documents. • 4. […] Males with female partners of childbearing potential who themselves are surgically sterile (status post vasectomy) must agree to use condoms with spermicide over the same period of time. Male subjects must agree to practice the above birth control methods for 14 days after the final visit as a safety precaution. • 5. Subjects must be in good health as determined by their medical history including personal and family psychiatric history and results of physical examination, electrocardiogram (ECG), vital signs, and laboratory tests. A subject with a medical abnormality may be included only if the investigator or designee considers that the abnormality will not introduce significant additional risk to the subject's health or interfere with study objectives. • 6. Subjects must be able to clearly and reliably communicate changes in their medical condition. • 7. Subjects with a body mass index (BMI) between 19.0 and 32.0 kg/m^2 (both inclusive). • 8. Subjects able to swallow multiple pills or capsules simultaneously. • 9.
The criteria for exclusion of a subject from enrollment in the study were as follows: • 1. Any clinically relevant acute or chronic diseases, which could interfere with the subjects' safety during the trial, expose them to undue risk, or interfere with the study objectives. • 2. History or presence of gastrointestinal, hepatic, or renal disease or other condition known to interfere with the absorption, distribution, metabolism or excretion of the study drugs. • 3. History of substance abuse, known drug addiction, or positive test for drugs of abuse or alcohol. • 4. History of drug or other significant allergy. • 5. […] History of and/or current QT interval prolongation, congenital long QT syndrome, electrolyte abnormalities (e.g., hypokalemia or hypomagnesemia), congestive heart failure, bradyarrhythmias or other medicinal products that lead to QT prolongation or 1st degree AV block at Screening, Day−1, or pre-dose, ≥450 QTcF for males and ≥470 QTcF for females. • 7. […] Tobacco or nicotine users (except subjects who stopped using tobacco or nicotine 1 year or more before enrollment in the study). • 9. Excessive daily consumption of xanthines containing drinks (i.e. >500 mg/day of caffeine). • 10. Subjects unwilling to curtail prolonged intensive physical exercise during the study conduct (from the Screening visit until the last dose of study drug). • 11. […] Positive test result for HIV 1 or 2 serology. • 13. Likely to need any medical or dental treatment during the study period. • 14. […] Show evidence of suicidal ideation within the last 6 months as assessed by the C-SSRS (Columbia Suicide Severity Rating Scale) at Screening. […]

[1] = in vivo; cited from earlier work

Structure (SMILES)	dose limiting toxicity (humans; both, human, in vivo)	Maximal Tolerated Dose (MTD) (humans; subject 1001)	Maximal Tolerated Dose (MTD) (humans; subject 1006)	Maximal Tolerated Dose (MTD) (humans; subject 1007)	Maximal Tolerated Dose (MTD) (humans; subject 1008)	plasma half-life [1]
CCCN[C@H]1CCc2nc(N)sc2C1 [Pramipexole, (S)-6-propylamino-4,5,6,7-tetrahydro-1,3-benzothiazole-2-amine]	gastro-intestinal adverse event in all 4 subjects	2.0 mg	<0.5 mg	4.0 mg	1.0 mg	
C=CCN1C[C@H](C(=O)N(CCCN(C)C)C(=O)NCC)C[C@@H]2c3cccc4[nH]cc(c34)C[C@H]21 [cabergoline, (6aR,9R,10aR)—N-[3-(dimethylamino)propyl]-N-(ethylcarbamoyl)-7-prop-2-enyl-6,6a,8,9,10,10a-hexahydro-4H-indolo[4,3-fg]quinoline-9-carboxamide]						about 65 hours
